# Laboratory results as given in ChEMBL document CHEMBL5523756, “Molecular Transformers: Adaptive Multitarget Ligands for Esterase-Induced Transition from Analgesics to Anesthetics” (J Med Chem, 2024).
# Active and inactive are the calls of the source. The rule behind the calls is not given here.
# Assays:
# [1] = Toxicity in Sprague-Dawley rat assessed as effect on alpha-HBDH level at 19 mg/kg administered as continuous infusion followed by maintenance at 3.25 mg/kg/min for 0 to 20 mins, 2.5 mg/kg/min for 20 to 30 mins and 2 mg/kg/min for 30 to 60 mins; type: organism-based; details: in vivo, other, 1 h, route par
# [2] = (§1) Toxicity in Sprague-Dawley rat assessed as effect on end expiratory pause at 19 mg/kg administered as continuous infusion followed by maintenance at 3.25 mg/kg/min for 0 to 20 mins, 2.5 mg/kg/min for 20 to 30 mins and 2 mg/kg/min for 30 to 60 mins and measured every 5 mins for 60 mins by whole-body plethysmography; type: organism-based; details: in vivo, other, 1 h, route par
# [3] = as §1, with “respiratory frequency” for “end expiratory pause”; type: organism-based; details: in vivo, other, 1 h, route par
# [4] = Toxicity in ICR mouse assessed as survival rate at 1.5 times ED50 administered intravenously; details: in vivo, route iv
# [5] = Stability in rat plasma assessed as half life at 1 mg/ml measured upto 360 mins by HPLC analysis; type: ADME, cell-free
# Mus musculus [6] = assay: Antiseizure activity in iv dosed ICR mouse model of PTZ-induced acute seizure assessed as prolongation of latency time before onset of first convulsion preadministered for 1 min followed by PTZ treatment; type: functional, organism-based
# [7] = target: Sodium channel protein type 9 subunit alpha (Homo sapiens, UniProt Q15858); assay: Inhibition of Nav1.7 channel (unknown origin) at half inactivation state at -120 mV conditioning pulse by voltage clamp electrophysiological recording
# Sequence of Sodium channel protein type 9 subunit alpha (Q15858 whole entry, the tested form may be a part): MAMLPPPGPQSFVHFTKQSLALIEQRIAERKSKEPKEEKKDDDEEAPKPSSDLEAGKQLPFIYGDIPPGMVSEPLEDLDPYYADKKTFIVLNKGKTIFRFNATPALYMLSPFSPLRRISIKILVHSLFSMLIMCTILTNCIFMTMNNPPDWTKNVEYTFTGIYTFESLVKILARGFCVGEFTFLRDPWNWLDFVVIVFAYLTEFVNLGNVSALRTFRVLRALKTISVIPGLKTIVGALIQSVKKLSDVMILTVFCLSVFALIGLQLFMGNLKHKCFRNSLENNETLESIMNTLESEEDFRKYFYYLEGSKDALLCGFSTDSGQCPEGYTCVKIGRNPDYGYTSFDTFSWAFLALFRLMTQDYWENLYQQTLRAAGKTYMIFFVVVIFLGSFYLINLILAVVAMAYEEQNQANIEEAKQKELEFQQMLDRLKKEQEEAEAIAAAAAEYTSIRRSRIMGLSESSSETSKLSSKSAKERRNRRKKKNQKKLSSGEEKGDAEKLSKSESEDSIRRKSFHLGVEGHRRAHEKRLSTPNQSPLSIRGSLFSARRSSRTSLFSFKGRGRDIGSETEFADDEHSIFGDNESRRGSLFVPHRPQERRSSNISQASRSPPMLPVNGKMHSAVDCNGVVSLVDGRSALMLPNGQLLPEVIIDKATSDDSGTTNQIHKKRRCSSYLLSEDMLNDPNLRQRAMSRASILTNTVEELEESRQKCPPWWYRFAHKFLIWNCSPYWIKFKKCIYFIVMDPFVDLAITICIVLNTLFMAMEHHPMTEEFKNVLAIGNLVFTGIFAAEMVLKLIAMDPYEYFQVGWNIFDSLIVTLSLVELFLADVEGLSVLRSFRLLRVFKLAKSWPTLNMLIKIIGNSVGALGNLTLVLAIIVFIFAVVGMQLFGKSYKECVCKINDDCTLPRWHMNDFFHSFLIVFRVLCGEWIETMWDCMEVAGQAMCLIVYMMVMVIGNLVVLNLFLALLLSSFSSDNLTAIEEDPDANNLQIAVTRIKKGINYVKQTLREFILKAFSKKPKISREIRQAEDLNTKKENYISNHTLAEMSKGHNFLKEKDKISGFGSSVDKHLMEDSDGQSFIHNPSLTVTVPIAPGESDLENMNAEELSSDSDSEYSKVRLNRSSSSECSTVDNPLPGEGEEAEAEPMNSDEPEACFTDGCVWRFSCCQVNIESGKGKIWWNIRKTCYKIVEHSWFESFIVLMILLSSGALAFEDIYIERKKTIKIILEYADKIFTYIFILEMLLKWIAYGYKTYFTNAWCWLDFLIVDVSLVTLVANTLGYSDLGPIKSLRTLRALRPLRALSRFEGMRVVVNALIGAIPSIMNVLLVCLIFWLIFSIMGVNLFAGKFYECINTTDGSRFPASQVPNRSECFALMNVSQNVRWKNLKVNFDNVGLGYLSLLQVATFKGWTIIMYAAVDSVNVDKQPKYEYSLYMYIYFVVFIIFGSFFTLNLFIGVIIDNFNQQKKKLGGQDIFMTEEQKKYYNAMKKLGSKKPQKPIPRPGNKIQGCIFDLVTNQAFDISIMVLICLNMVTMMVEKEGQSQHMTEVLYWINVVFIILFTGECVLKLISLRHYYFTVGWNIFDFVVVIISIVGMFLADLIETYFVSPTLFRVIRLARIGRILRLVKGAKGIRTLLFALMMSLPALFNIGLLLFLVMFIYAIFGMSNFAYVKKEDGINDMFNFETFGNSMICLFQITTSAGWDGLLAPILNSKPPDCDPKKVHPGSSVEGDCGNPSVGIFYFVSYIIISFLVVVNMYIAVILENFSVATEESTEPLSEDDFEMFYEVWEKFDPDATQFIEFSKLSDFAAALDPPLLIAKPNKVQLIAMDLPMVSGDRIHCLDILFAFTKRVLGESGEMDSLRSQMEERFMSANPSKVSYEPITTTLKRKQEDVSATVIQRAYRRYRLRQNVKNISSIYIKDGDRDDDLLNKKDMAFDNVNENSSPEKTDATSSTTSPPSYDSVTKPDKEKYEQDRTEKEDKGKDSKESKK
# [8] = Toxicity in Sprague-Dawley rat assessed as reduction in heart rate at 19 mg/kg administered as continuous infusion followed by maintenance at 3.25 mg/kg/min for 0 to 20 mins, 2.5 mg/kg/min for 20 to 30 mins and 2 mg/kg/min for 30 to 60 mins by electrocardiogram recording; type: organism-based; design: scale not given: the % may be the effect or the level left; details: in vivo, other, 1 h, route par
# Mus musculus [9] = assay: Antiseizure activity in iv dosed ICR mouse model of PTZ-induced acute seizure assessed as reduction in maximum seizure class preadministered for 1 min followed by PTZ treatment and measured for 15 mins by Racine's scale based analysis; type: functional, organism-based; details: time 16.0 min
# [10] = as §1, with “amount of respiration” for “end expiratory pause”; type: organism-based; details: in vivo, other, 1 h, route par
# [11] = target: Sodium channel protein type 10 subunit alpha (Homo sapiens, UniProt Q9Y5Y9); assay: Inhibition of Nav1.8 channel (unknown origin) at half inactivation state at -120 mV conditioning pulse by voltage clamp electrophysiological recording
# [12] = target: Sodium channel protein type 5 subunit alpha (Homo sapiens, UniProt Q14524); assay: Inhibition of Nav1.5 channel (unknown origin) at resting state at -120 mV conditioning pulse by voltage clamp electrophysiological recording; type: toxicity
# Sequence of Sodium channel protein type 5 subunit alpha (Q14524 whole entry): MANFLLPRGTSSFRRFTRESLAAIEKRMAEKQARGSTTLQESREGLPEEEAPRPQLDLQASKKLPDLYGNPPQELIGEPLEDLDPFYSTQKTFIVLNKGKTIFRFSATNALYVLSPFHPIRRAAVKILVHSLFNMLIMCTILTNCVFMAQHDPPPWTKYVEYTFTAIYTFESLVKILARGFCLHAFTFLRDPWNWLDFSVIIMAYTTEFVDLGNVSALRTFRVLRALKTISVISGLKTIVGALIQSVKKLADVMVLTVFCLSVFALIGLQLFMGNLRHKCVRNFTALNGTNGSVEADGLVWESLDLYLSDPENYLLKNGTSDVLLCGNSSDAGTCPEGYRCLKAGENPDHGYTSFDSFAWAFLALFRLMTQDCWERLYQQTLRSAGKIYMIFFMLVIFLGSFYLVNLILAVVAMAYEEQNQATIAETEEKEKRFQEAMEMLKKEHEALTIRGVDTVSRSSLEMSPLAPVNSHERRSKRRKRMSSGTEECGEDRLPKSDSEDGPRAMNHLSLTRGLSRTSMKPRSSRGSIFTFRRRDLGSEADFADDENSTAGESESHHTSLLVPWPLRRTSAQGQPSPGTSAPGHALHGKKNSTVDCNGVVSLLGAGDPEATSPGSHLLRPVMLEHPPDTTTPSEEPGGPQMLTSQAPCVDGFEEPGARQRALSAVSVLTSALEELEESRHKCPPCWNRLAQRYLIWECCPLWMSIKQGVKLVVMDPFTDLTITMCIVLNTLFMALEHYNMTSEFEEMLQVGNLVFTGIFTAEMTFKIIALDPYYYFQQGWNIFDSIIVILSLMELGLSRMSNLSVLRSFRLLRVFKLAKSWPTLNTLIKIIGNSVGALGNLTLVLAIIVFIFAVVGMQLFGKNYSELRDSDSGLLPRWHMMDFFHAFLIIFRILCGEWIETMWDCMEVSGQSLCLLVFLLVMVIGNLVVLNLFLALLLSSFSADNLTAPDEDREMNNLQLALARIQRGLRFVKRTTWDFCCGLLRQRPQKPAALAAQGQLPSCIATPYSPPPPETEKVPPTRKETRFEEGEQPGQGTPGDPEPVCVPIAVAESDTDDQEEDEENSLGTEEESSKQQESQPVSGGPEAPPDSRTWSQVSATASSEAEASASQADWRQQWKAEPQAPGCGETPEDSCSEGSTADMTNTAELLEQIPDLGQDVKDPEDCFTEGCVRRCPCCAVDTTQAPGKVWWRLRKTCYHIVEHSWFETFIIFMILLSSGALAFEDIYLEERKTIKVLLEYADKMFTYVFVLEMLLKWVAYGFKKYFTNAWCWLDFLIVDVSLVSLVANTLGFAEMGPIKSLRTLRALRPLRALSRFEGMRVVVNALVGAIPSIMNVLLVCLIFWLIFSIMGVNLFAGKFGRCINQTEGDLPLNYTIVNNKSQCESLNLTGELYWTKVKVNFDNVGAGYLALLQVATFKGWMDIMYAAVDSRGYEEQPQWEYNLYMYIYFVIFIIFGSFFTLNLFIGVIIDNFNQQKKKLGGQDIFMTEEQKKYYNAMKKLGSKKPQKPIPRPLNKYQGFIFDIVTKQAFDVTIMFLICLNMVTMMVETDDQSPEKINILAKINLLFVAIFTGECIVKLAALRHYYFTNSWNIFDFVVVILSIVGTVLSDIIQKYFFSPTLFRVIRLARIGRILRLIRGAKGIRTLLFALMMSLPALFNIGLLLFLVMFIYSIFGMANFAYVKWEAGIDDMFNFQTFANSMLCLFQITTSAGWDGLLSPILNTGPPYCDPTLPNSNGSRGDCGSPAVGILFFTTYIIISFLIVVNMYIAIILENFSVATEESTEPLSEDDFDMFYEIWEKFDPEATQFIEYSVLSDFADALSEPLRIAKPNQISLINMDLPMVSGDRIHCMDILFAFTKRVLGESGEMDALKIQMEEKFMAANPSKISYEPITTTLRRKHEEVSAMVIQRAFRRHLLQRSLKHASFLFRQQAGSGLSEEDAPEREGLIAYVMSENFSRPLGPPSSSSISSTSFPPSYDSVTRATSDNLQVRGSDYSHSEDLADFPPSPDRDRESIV
# Cytochrome P450 2D6 = Cytochrome P450 2D6 (Homo sapiens, UniProt P10635); assay: Inhibition of CYP2D6 (unknown origin) using dextromethorphan as substrate at 10 uM; type: ADME
# Sequence of Cytochrome P450 2D6 (P10635 whole entry): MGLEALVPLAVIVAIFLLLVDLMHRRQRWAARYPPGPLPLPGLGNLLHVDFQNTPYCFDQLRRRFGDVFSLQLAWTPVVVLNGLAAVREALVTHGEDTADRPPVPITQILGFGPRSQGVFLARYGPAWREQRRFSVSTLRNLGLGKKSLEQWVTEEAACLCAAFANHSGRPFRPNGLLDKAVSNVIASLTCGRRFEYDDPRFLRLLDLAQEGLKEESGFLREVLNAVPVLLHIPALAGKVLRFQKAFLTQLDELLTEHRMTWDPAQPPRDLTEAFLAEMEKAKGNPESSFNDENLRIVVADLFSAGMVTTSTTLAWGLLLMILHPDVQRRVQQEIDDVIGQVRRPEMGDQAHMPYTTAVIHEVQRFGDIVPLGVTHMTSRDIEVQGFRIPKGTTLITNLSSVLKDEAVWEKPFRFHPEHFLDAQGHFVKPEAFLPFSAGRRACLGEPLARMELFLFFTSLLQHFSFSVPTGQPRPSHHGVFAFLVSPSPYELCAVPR
# Cocaine esterase = target: T1, Cocaine esterase (Homo sapiens, UniProt O00748); assay: Drug metabolism assessed as human CES2-mediated propofol release at 1 mg/ml measured upto 240 mins by LC-MS analysis; type: ADME; details: 4 h
# T1 sequence (O00748 whole entry): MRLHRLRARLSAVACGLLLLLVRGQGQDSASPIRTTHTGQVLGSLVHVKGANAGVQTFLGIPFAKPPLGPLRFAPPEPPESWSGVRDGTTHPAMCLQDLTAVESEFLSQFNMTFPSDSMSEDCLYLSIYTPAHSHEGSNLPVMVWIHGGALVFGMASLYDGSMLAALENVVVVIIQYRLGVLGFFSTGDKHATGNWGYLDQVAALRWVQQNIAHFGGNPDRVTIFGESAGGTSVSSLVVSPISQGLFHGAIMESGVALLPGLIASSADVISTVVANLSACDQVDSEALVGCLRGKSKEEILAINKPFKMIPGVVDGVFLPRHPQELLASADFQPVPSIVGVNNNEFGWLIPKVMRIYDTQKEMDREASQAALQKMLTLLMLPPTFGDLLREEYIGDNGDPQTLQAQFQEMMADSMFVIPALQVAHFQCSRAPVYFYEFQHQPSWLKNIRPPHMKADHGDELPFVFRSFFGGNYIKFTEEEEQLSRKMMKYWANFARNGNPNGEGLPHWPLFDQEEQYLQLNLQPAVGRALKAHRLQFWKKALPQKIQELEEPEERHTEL
# Cytochrome P450 2C9 = Cytochrome P450 2C9 (Homo sapiens, UniProt P11712); assay: Inhibition of CYP2C9 (unknown origin) using diclofenac as substrate at 10 uM; type: ADME
# Sequence of Cytochrome P450 2C9 (P11712 whole entry): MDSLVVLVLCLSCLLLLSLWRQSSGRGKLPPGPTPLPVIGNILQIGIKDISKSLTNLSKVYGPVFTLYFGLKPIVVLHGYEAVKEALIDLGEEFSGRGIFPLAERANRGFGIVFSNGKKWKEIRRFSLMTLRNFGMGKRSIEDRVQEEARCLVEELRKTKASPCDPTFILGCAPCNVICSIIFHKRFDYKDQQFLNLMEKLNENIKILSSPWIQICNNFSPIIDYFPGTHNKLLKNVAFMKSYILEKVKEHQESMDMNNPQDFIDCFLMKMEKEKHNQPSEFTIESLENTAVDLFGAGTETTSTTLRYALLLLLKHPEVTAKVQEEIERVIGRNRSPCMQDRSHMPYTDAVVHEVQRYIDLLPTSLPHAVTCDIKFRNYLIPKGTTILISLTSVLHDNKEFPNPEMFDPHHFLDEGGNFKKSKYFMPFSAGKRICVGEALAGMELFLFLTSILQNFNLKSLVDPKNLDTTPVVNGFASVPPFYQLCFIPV
# CYP1A2 = target: T2, CYP1A2 (Homo sapiens, UniProt P05177); assay: Inhibition of CYP1A2 (unknown origin) using phenacetin as substrate at 10 uM relative to control; type: ADME; details: probe phenacetin
# T2 sequence (P05177 whole entry): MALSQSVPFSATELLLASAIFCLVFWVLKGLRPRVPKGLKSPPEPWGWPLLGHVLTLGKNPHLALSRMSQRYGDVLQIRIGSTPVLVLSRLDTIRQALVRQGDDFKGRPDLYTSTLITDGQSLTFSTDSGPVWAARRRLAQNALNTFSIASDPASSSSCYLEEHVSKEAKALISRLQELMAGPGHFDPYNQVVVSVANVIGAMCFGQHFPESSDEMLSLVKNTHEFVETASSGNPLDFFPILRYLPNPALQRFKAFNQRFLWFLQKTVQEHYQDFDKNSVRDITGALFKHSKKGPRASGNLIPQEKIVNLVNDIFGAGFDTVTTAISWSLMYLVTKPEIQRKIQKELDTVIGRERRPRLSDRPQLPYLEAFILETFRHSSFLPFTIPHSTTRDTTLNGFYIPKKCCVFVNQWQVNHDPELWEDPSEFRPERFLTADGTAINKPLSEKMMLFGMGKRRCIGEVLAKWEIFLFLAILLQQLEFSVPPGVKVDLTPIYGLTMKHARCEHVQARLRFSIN
# Rattus norvegicus = assay: Analgesic activity in Sprague-Dawley rat model of thermal nociception assessed as increase in hind-paw withdrawal latency at 19 mg/kg administered as continuous infusion followed by maintenance at 3.25 mg/kg/min for 0 to 20 mins, 2.5 mg/kg/min for 20 to 30 mins and 2 mg/kg/min for 30 to 60 mins; type: functional, organism-based; details: route par, TDE = time-dependent effect
# DRG neuron = assay: Modulation of CFA-induced male ICR mouse DRG neuron excitability assessed as reduction in action potential firing frequency at 10 uM by whole cell […] assay; type: functional, cell-based
# [13] = Toxicity in Sprague-Dawley rat assessed as ALT level at 19 mg/kg administered as continuous infusion followed by maintenance at 3.25 mg/kg/min for 0 to 20 mins, 2.5 mg/kg/min for 20 to 30 mins and 2 mg/kg/min for 30 to 60 mins; type: organism-based; details: in vivo, other, 1 h, route par
# [14] = Toxicity in Sprague-Dawley rat assessed as histopathological changes in kidney at 19 mg/kg administered as continuous infusion followed by maintenance at 3.25 mg/kg/min for 0 to 20 mins, 2.5 mg/kg/min for 20 to 30 mins and 2 mg/kg/min for 30 to 60 mins and measured after 14 days by H and E staining based analysis; type: organism-based; details: in vivo, other, 336 h, route par, time 14 day
# [15] = Stability of compound assessed as porcine liver esterase mediated propofol release by measuring half life at 1 mg/ml by HPLC analysis; type: ADME, Sus scrofa; details: pig, isolated protein
smiles,measurement,setting,value
CCN(CC)CCOC(=O)Oc1c(C(C)C)cccc1C(C)C.Cl,Activity,[1],Non-Toxic
same,Activity,[2],Non-Toxic
same,Activity,[3],Non-Toxic
same,survival,[4],100%
same,half-life at 1 mg/ml,[5],1.7 min
same,Activity,Mus musculus [6],Active
same,IC50,[7],7.43 µM
same,Activity,[8],< 20%
same,Activity,Mus musculus [9],Active
same,Activity,[10],Non-Toxic
same,IC50,[11],1.92 µM
same,IC50,[12],23.5 µM
same,inhibition (INH),Cytochrome P450 2D6,Not Active
same,Drug metabolism,Cocaine esterase,Metabolite_Detected
same,inhibition (INH),Cytochrome P450 2C9,Not Active
same,inhibition at 10 µM,CYP1A2,26.2%
same,Activity,Rattus norvegicus,Tde
same,Activity,DRG neuron,Active
same,Activity,[13],52.47 U/L
same,Activity,[14],Non-Toxic
same,t1/2,[15],8.609 min
